Results published in patent US12723063B2, “GIPR-agonist compounds” (Eli Lilly and Company, priority 2019, dated 2026).
*1 amine or outer side, *2 acyl side, *3 side chain or, on linkers, in order; H or OH if unused. Where a SMILES comes first, the peptide text is derived from it. Side-chain parts run from the residue outwards. [ ]: non-standard residue; d: D form. The star is where a group is joined. C20 diacid = O=C(O)CCCCCCCCCCCCCCCCCCC(=O)*; C18 diacid = O=C(O)CCCCCCCCCCCCCCCCC(=O)*; αMePhe(2-F) = C[C@](N)(Cc1ccccc1F)C(=O)O; γGlu = O=C(O)[C@H](CCC(=O)[*:2])N[*:1]; αMeF = C[C@](N)(Cc1ccccc1)C(=O)O; 4Pal = N[C@@H](Cc1ccncc1)C(=O)O; αMeL = CC(C)C[C@](C)(N)C(=O)O; AEEA = NCCOCCOCC(=O)O; Aib = CC(C)(N)C(=O)O

What was measured:
Test in all cases: cAMP functional assay (HTRF) in HEK293 cells in presence of 0.1% casein
Assay type in all cases: cell-based
[1] = target: T1, human glucose-dependent insulinotropic peptide receptor (GIPR) (Homo sapiens, UniProt P48546); settings: HEK293 cells expressing human GIPR, geometric mean, read-out: hGIPR cAMP Rel EC50 nM (SEM, n)
T1 construct: expressed in transfected cells; host or cells: HEK293
T1 sequence (P48546 22-466): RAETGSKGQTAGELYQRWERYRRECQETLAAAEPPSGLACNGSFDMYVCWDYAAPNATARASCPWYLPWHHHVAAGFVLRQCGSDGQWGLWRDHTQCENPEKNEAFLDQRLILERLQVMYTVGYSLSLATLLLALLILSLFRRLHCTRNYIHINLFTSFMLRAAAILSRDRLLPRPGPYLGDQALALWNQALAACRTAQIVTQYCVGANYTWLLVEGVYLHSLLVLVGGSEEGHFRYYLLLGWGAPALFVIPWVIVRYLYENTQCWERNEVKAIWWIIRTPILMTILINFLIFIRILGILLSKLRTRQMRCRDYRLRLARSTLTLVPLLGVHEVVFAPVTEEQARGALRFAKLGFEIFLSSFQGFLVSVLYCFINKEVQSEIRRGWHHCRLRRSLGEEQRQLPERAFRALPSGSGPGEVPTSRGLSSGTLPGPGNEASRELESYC

[2] = target: T2, human glucagon receptor (GcgR) (Homo sapiens, UniProt P47871); settings: HEK293 cells expressing human GcgR, geometric mean, read-out: hGcgR cAMP Rel EC50 nM (SEM, n)
T2 construct: expressed in transfected cells; host or cells: HEK293

[3] = target: T3, human GLP-1 receptor (GLP-1R) (Homo sapiens, UniProt P43220); settings: HEK293 cells expressing human GLP-1R, geometric mean, read-out: hGLP1R cAMP Rel EC50 nM (SEM, n)
T3 construct: expressed in transfected cells; host or cells: HEK293
T3 sequence (P43220 24-463): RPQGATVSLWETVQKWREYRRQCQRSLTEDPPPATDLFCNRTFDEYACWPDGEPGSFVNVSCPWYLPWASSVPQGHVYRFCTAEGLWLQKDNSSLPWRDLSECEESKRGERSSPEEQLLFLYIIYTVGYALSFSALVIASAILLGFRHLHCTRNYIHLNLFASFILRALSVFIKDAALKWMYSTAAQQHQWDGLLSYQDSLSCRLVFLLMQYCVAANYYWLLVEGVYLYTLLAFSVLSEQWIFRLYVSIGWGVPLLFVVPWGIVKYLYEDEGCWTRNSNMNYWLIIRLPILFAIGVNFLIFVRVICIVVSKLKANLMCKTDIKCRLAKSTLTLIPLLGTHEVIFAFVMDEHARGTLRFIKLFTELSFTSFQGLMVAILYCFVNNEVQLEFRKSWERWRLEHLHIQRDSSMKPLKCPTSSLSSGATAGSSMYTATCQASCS

T2 sequence (P47871 26-477): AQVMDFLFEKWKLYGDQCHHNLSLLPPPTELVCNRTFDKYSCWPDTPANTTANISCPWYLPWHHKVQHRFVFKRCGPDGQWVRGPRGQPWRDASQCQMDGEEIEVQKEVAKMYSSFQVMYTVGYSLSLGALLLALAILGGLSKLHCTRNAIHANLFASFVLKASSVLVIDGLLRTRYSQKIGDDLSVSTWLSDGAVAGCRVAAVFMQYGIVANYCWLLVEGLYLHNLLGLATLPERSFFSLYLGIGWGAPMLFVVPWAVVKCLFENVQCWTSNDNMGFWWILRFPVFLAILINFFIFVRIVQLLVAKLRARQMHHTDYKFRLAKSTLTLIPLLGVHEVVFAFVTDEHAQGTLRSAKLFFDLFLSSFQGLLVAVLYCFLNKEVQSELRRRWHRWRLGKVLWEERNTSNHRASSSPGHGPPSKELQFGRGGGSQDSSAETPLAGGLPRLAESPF

Row | SMILES | EC50 [1] [nM] | EC50 [2] [nM] | EC50 [3] [nM]
1 | CC[C@H](C)[C@H](NC(=O)[C@H](CO)NC(=O)[C@H](Cc1ccc(O)cc1)NC(=O)[C@H](CC(=O)O)NC(=O)[C@H](CO)NC(=O)[C@@H](NC(=O)[C@](C)(Cc1ccccc1)NC(=O)[C@@H](NC(=O)CNC(=O)[C@H](CCC(=O)O)NC(=O)C(C)(C)NC(=O)[C@@H](N)Cc1ccc(O)cc1)[C@@H](C)O)[C@@H](C)CC)C(=O)N[C@@H](C)C(=O)N[C@@H](CC(C)C)C(=O)N[C@@H](CC(=O)O)C(=O)N[C@@H](CCCCN)C(=O)N[C@@H](CCCCNC(=O)COCCOCCNC(=O)COCCOCCNC(=O)CC[C@H](NC(=O)CCCCCCCCCCCCCCCCCCC(=O)O)C(=O)O)C(=O)N[C@@H](Cc1c[nH]cn1)C(=O)N[C@@H](CCC(N)=O)C(=O)NC(C)(C)C(=O)N[C@@H](CCC(=O)O)C(=O)N[C@@H](Cc1ccccc1)C(=O)N[C@H](C(=O)N[C@@H](CC(N)=O)C(=O)N[C@@H](Cc1c[nH]c2ccccc12)C(=O)N[C@@H](CC(C)C)C(=O)N[C@@H](CC(C)C)C(=O)N[C@@H](C)C(=O)NCC(=O)NCC(=O)N1CCC[C@H]1C(=O)N[C@@H](CO)C(=O)N[C@@H](CO)C(=O)NCC(=O)N[C@@H](C)C(=O)N1CCC[C@H]1C(=O)N1CCC[C@H]1C(=O)N1CCC[C@H]1C(=O)N[C@@H](CO)C(N)=O)C(C)C [Example 25] (H-Y[Aib]EGT[αMeF]ISDYSIALDKK([AEEA-AEEA-γGlu-C20 diacid])HQ[Aib]EFVNWLLAGGPSSGAPPPS-NH2) | 0.0155 | > 5000 | 8.39
2 | CC[C@H](C)[C@H](NC(=O)[C@H](CO)NC(=O)[C@H](Cc1ccc(O)cc1)NC(=O)[C@H](CC(=O)O)NC(=O)[C@H](CO)NC(=O)[C@@H](NC(=O)[C@](C)(Cc1ccccc1F)NC(=O)[C@@H](NC(=O)CNC(=O)[C@H](CCC(=O)O)NC(=O)C(C)(C)NC(=O)[C@@H](N)Cc1ccc(O)cc1)[C@@H](C)O)[C@@H](C)CC)C(=O)N[C@@H](CC(C)C)C(=O)N[C@@H](CC(C)C)C(=O)N[C@@H](CC(=O)O)C(=O)N[C@@H](CCCCN)C(=O)N[C@H](C(=O)N[C@@H](Cc1c[nH]cn1)C(=O)N[C@@H](CCC(N)=O)C(=O)NC(C)(C)C(=O)N[C@@H](CC(=O)O)C(=O)N[C@@H](Cc1ccccc1)C(=O)N[C@H](C(=O)N[C@@H](CCC(=O)O)C(=O)N[C@@H](Cc1ccncc1)C(=O)N[C@@H](CCCCNC(=O)COCCOCCNC(=O)COCCOCCNC(=O)CC[C@H](NC(=O)CCCCCCCCCCCCCCCCCCC(=O)O)C(=O)O)C(=O)N[C@@H](CC(C)C)C(=O)N[C@@H](CCC(=O)O)C(=O)NCC(=O)NCC(=O)N1CCC[C@H]1C(=O)N[C@@H](CO)C(=O)N[C@@H](CO)C(=O)NCC(=O)N[C@@H](C)C(=O)N1CCC[C@H]1C(=O)N1CCC[C@H]1C(=O)N1CCC[C@H]1C(=O)N[C@@H](CO)C(N)=O)C(C)C)[C@@H](C)CC [Example 119] (H-Y[Aib]EGT[αMePhe(2-F)]ISDYSILLDKIHQ[Aib]DFVE[4Pal]K([AEEA-AEEA-γGlu-C20 diacid])LEGGPSSGAPPPS-NH2) | 0.022 | > 5000 | > 5000
3 | CC[C@H](C)[C@H](NC(=O)[C@H](CC(C)C)NC(=O)[C@@H](NC(=O)CNC(=O)[C@H](CCC(=O)O)NC(=O)C(C)(C)NC(=O)[C@@H](N)Cc1ccc(O)cc1)[C@@H](C)O)C(=O)N[C@@H](CO)C(=O)N[C@@H](CC(=O)O)C(=O)N[C@@H](Cc1ccc(O)cc1)C(=O)N[C@@H](CO)C(=O)N[C@H](C(=O)N[C@@](C)(CC(C)C)C(=O)N[C@@H](CC(C)C)C(=O)N[C@@H](CC(=O)O)C(=O)N[C@@H](CCCCN)C(=O)N[C@@H](CCCCNC(=O)COCCOCCNC(=O)COCCOCCNC(=O)CC[C@H](NC(=O)CCCCCCCCCCCCCCCCCCC(=O)O)C(=O)O)C(=O)N[C@@H](Cc1c[nH]cn1)C(=O)N[C@@H](CCC(N)=O)C(=O)NC(C)(C)C(=O)N[C@@H](CC(=O)O)C(=O)N[C@@H](Cc1ccccc1)C(=O)N[C@H](C(=O)N[C@@H](CCC(=O)O)C(=O)N[C@@H](Cc1ccncc1)C(=O)N[C@@H](CC(C)C)C(=O)N[C@@H](CC(C)C)C(=O)N[C@@H](CCC(=O)O)C(=O)N[C@@H](C)C(=O)NCC(=O)N1CCC[C@H]1C(=O)N[C@@H](CO)C(=O)N[C@@H](CO)C(=O)NCC(=O)N[C@@H](C)C(=O)N1CCC[C@H]1C(=O)N1CCC[C@H]1C(=O)N1CCC[C@H]1C(=O)N[C@@H](CO)C(N)=O)C(C)C)[C@@H](C)CC [Example 89] (H-Y[Aib]EGTLISDYSI[αMeL]LDKK([AEEA-AEEA-γGlu-C20 diacid])HQ[Aib]DFVE[4Pal]LLEAGPSSGAPPPS-NH2) | 0.00687 | > 5000 | > 5000
4 | CC[C@H](C)[C@H](NC(=O)[C@H](Cc1ccccc1)NC(=O)[C@@H](NC(=O)CNC(=O)[C@H](CCC(=O)O)NC(=O)C(C)(C)NC(=O)[C@@H](N)Cc1ccc(O)cc1)[C@@H](C)O)C(=O)N[C@@H](CO)C(=O)N[C@@H](CC(=O)O)C(=O)N[C@@H](Cc1ccc(O)cc1)C(=O)N[C@@H](CO)C(=O)N[C@H](C(=O)N[C@@](C)(CC(C)C)C(=O)N[C@@H](CC(C)C)C(=O)N[C@@H](CC(=O)O)C(=O)N[C@@H](CCCN)C(=O)N[C@@H](CCCCNC(=O)COCCOCCNC(=O)COCCOCCNC(=O)CC[C@H](NC(=O)CCCCCCCCCCCCCCCCCCC(=O)O)C(=O)O)C(=O)N[C@@H](Cc1c[nH]cn1)C(=O)N[C@@H](CCC(N)=O)C(=O)NC(C)(C)C(=O)N[C@@H](CC(=O)O)C(=O)N[C@@H](Cc1ccccc1)C(=O)N[C@H](C(=O)N[C@@H](CCC(=O)O)C(=O)N[C@@H](Cc1ccncc1)C(=O)N[C@@H](CC(C)C)C(=O)N[C@@H](CC(C)C)C(=O)N[C@@H](CCC(=O)O)C(=O)N[C@@H](C)C(=O)NCC(=O)N1CCC[C@H]1C(=O)N[C@@H](CO)C(=O)N[C@@H](CO)C(=O)NCC(=O)N[C@@H](C)C(=O)N1CCC[C@H]1C(=O)N1CCC[C@H]1C(=O)N1CCC[C@H]1C(=O)N[C@@H](CO)C(N)=O)C(C)C)[C@@H](C)CC [Example 4] | 0.0182 | 1690 | > 5000
5 | CC[C@H](C)[C@H](NC(=O)[C@H](CO)NC(=O)[C@H](Cc1ccc(O)cc1)NC(=O)[C@H](CC(=O)O)NC(=O)[C@H](CO)NC(=O)[C@@H](NC(=O)[C@](C)(Cc1ccccc1F)NC(=O)[C@@H](NC(=O)CNC(=O)[C@H](CCC(=O)O)NC(=O)C(C)(C)NC(=O)[C@@H](N)Cc1ccc(O)cc1)[C@@H](C)O)[C@@H](C)CC)C(=O)N[C@@H](C)C(=O)N[C@@H](CC(C)C)C(=O)N[C@@H](CC(=O)O)C(=O)N[C@@H](CCCCN)C(=O)N[C@H](C(=O)N[C@@H](Cc1c[nH]cn1)C(=O)N[C@@H](CCC(N)=O)C(=O)NC(C)(C)C(=O)N[C@@H](CC(=O)O)C(=O)N[C@@H](Cc1ccccc1)C(=O)N[C@H](C(=O)N[C@@H](CCC(=O)O)C(=O)N[C@@H](Cc1ccc(O)cc1)C(=O)N[C@@H](CCCCNC(=O)COCCOCCNC(=O)COCCOCCNC(=O)CC[C@H](NC(=O)CCCCCCCCCCCCCCCCCCC(=O)O)C(=O)O)C(=O)N[C@@H](CC(C)C)C(=O)N[C@@H](CCC(=O)O)C(=O)NCC(=O)NCC(=O)N1CCC[C@H]1C(=O)N[C@@H](CO)C(=O)N[C@@H](CO)C(=O)NCC(=O)N[C@@H](C)C(=O)N1CCC[C@H]1C(=O)N1CCC[C@H]1C(=O)N1CCC[C@H]1C(=O)N[C@@H](CO)C(N)=O)C(C)C)[C@@H](C)CC [Example 99] (H-Y[Aib]EGT[αMePhe(2-F)]ISDYSIALDKIHQ[Aib]DFVEYK([AEEA-AEEA-γGlu-C20 diacid])LEGGPSSGAPPPS-NH2) | 0.00454 | > 5000 | > 5000
6 | CC[C@H](C)[C@H](NC(=O)[C@H](CO)NC(=O)[C@H](Cc1ccc(O)cc1)NC(=O)[C@H](CC(=O)O)NC(=O)[C@H](CO)NC(=O)[C@@H](NC(=O)[C@H](Cc1ccccc1)NC(=O)[C@@H](NC(=O)CNC(=O)[C@H](CCC(=O)O)NC(=O)[C@@H](C)NC(=O)[C@@H](N)Cc1ccc(O)cc1)[C@@H](C)O)[C@@H](C)CC)C(=O)N[C@@H](CC(C)C)C(=O)N[C@@H](CC(C)C)C(=O)N[C@@H](CC(=O)O)C(=O)N[C@@H](CCCCN)C(=O)N[C@@H](CCCCNC(=O)COCCOCCNC(=O)COCCOCCNC(=O)CC[C@H](NC(=O)CCCCCCCCCCCCCCCCC(=O)O)C(=O)O)C(=O)N[C@@H](C)C(=O)N[C@@H](CCC(N)=O)C(=O)NC(C)(C)C(=O)N[C@@H](CC(=O)O)C(=O)N[C@@H](Cc1ccccc1)C(=O)N[C@H](C(=O)N[C@@H](CC(N)=O)C(=O)N[C@@H](Cc1ccncc1)C(=O)N[C@@H](CC(C)C)C(=O)N[C@@H](CC(C)C)C(=O)N[C@@H](C)C(=O)N[C@@H](CCC(N)=O)C(=O)NCC(=O)N1CCC[C@H]1C(=O)N[C@@H](CO)C(=O)N[C@@H](CO)C(=O)NCC(=O)N[C@@H](C)C(=O)N1CCC[C@H]1C(=O)N1CCC[C@H]1C(=O)N1CCC[C@H]1C(=O)N[C@@H](CO)C(N)=O)C(C)C [Example 18] (H-Y[dA]EGTFISDYSILLDKK([AEEA-AEEA-γGlu-C18 diacid])AQ[Aib]DFVN[4Pal]LLAQGPSSGAPPPS-NH2) | 0.00656 | > 5000 | > 5000
